Assay [1] can be described thus: inhibitors of TRPM1-promoter reporter in SK-MEL-5 – cell-based, luciferase, dry powder, set 9, MITF inhibitor project, dose response (AID 651588). In kind it is functional.
A short description of assay [2]: MITF Measured in Cell-Based System Using Plate Reader - 2084-01_Inhibitor_Dose_DryPowder_Activity_Set7. In kind it is functional.
Assay [3] concerns the target Dual specificity protein phosphatase 3 (Homo sapiens, UniProt P51452). The assay can be described thus: VHR1 phosphatase inhibitors, primary screen, biochemical, absorbance, uHTS (AID 1654).
Assay [4] addresses Bifunctional protein GlmU (Mycobacterium tuberculosis, UniProt P9WMN3). Nature of the assay: Inhibitors of Mycobacterial Glucosamine-1-phosphate acetyl transferase (GlmU). Secondary screen. Set-up: species or system Mycobacterium tuberculosis H37Rv.
For assay [5], the target named is Intestinal-type alkaline phosphatase (Homo sapiens, UniProt P09923). Nature of the assay: activation of human intestinal alkaline phosphatase – biochemical, dose response (AID 488873). In kind it is functional.
Intestinal-type alkaline phosphatase, sequence (P09923 whole entry): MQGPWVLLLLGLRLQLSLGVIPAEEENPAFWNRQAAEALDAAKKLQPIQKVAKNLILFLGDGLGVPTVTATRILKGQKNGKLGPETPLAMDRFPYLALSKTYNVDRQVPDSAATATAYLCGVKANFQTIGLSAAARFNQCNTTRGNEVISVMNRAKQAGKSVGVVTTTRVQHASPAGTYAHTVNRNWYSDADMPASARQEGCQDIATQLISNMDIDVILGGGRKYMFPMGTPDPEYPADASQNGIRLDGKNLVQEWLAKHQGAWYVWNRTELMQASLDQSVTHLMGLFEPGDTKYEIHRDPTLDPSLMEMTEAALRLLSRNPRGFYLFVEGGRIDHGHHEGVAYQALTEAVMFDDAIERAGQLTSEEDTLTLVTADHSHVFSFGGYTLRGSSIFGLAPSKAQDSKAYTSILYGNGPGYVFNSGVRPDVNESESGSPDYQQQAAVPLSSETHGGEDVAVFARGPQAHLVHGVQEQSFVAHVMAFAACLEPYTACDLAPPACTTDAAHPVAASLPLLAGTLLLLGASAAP
The target in assay [6] is Dual specificity tyrosine-phosphorylation-regulated kinase 1A (Rattus norvegicus, UniProt Q63470). In kind it is biochemical, Homo sapiens.
Assay [7] addresses T1, RNA-binding protein pos-1 (Caenorhabditis elegans, UniProt G5EF15).
T1 sequence (G5EF15 whole entry): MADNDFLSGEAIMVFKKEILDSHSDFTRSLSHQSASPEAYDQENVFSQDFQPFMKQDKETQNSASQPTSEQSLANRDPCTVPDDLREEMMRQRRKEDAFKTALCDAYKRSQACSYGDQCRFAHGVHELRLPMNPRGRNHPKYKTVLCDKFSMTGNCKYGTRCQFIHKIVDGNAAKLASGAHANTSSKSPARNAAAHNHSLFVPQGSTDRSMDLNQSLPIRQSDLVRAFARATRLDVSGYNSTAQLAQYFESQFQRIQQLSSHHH
Nature of the assay: disruptors of C. elegans POS-1 RNA interaction – biochemical, fluorescence polarization, dose response (AID 1964).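 Also: purified POS-1 fused to maltose binding protein made in E. coli; potency of compounds blocking POS-1 binding to fluorescent RNA.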 On the technique in general: Fluorescence polarisation rises when a labelled molecule tumbles more slowly, as on binding a larger partner.

Assay [8] has as its system Streptococcus sp. 'group A'. Nature of the assay: Streptococcus pyogenes SK(-)GAS viability under kanamycin – luminescence, BacTiterGlo, confirmation, counter-screen for streptokinase expression inhibitor project, dose response (AID 1900). The class given is functional, organism-based.
The nature of assay [9]: Trypanosoma cruzi growth suppression in host cells – NIH3T3 host cells, beta-gal luminescence, confirmation (AID 2044).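 Also: intracellular parasites grown in NIH/3T3 mouse fibroblasts as host cells; luminescent beta-galactosidase reporter signal from transgenic T. cruzi replicating inside host cells; inhibitors lower the luminescence signal.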 In kind it is functional, cell-based.
Assay [10] is described as follows: viability of HCT116 lacking mutant beta-catenin – cell-based, human colon tumor, dose response (AID 1045).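 Also: HCT116 colon tumor cells with beta catenin knocked out; cells exposed to compound for 60 hours.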 In kind it is functional.
Assay [11] in a line: viability loss in THP-1 monocytes – THP-1 cells, cytotoxicity control for Vif-APOBEC3G degradation inhibitor project, dose response (AID 1117359). In kind it is functional. The note with it: THP-1.
For assay [12], the target named is T2, Orexin/Hypocretin receptor type 1 (Homo sapiens, UniProt O43613).
T2 sequence (O43613 whole entry): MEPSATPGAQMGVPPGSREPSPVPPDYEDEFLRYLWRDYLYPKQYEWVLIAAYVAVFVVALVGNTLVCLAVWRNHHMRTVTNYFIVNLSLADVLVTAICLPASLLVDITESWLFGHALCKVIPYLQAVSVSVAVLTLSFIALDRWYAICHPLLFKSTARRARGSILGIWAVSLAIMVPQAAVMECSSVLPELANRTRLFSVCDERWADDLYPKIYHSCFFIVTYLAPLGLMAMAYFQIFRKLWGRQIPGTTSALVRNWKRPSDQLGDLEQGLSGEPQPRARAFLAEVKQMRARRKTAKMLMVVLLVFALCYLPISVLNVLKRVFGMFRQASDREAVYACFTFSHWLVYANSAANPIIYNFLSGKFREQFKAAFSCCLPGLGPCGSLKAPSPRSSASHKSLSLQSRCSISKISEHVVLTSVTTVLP
The assay can be described thus: Fluorescence-based cell-based high throughput dose response assay for antagonists of the orexin 1 receptor (OX1R; HCRTR1). [Related pubchem assays (depositor defined):AID434989, AID435008, AID463079, AID485270, AID492963, AID492964, AID492965, AID493232, AID504717, AID504718]. In kind it is functional.

Assay [13] has as its target Dual specificity protein kinase CLK2 (Homo sapiens, UniProt P49760). The class given is functional.
Assay [14] deals with Dual specificity mitogen-activated protein kinase kinase 1 (Homo sapiens, UniProt Q02750). The assay can be described thus: Navigating the Kinome. Panel member name: MAP2K1. In kind it is functional.
Assay [15] concerns the target Phosphorylase b kinase gamma catalytic chain, liver/testis isoform (Homo sapiens, UniProt P15735). The class given is functional.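 Also: PHKG2 measured as one member of a kinome-wide kinase panel.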
The target in assay [16] is RAC-gamma serine/threonine-protein kinase (Homo sapiens, UniProt Q9Y243). The class given is functional.
The target in assay [17] is 5'-AMP-activated protein kinase catalytic subunit alpha-1 (Homo sapiens, UniProt Q13131). In kind it is functional.
The target in assay [18] is Protein kinase C delta type (Homo sapiens, UniProt Q05655). In kind it is functional.
Protein kinase C delta type, sequence (Q05655 whole entry): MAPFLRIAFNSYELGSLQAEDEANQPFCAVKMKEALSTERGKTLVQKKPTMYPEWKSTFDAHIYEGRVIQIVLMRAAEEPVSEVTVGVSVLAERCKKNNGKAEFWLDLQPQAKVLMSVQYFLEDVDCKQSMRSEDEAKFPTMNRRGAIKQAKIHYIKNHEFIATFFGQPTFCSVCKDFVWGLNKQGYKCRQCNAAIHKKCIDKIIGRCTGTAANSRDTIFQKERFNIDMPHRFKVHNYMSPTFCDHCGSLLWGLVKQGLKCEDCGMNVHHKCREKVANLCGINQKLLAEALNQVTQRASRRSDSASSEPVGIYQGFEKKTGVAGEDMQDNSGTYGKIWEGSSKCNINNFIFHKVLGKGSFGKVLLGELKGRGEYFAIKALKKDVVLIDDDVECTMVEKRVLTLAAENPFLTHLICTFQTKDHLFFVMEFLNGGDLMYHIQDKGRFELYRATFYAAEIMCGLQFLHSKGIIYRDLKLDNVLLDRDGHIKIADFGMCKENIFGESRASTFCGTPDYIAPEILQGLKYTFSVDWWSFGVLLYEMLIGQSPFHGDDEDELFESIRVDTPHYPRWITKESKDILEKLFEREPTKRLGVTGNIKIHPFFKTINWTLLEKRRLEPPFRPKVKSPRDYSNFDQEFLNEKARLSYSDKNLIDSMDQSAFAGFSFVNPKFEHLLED
The target of assay [19] is Tyrosine-protein kinase Lck (Homo sapiens, UniProt P06239). In kind it is functional.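 Also: lck was assayed as one member of a kinase panel.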
Tyrosine-protein kinase Lck, sequence (P06239 whole entry): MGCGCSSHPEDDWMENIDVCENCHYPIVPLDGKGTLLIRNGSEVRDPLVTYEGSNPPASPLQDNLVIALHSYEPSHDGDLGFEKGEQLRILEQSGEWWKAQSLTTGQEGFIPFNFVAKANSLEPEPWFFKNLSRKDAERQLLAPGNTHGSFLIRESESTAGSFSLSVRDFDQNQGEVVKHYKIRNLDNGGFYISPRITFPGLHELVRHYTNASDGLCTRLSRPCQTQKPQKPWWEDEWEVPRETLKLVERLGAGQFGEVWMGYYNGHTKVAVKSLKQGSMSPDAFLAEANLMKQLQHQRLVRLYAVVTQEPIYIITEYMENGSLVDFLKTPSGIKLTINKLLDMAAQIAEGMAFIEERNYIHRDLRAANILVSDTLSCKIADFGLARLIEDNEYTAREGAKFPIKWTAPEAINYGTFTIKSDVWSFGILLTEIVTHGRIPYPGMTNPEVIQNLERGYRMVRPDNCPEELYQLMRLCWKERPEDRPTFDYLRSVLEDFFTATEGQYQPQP
For assay [20], the target named is Death-associated protein kinase 3 (Homo sapiens, UniProt O43293). In kind it is functional.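 Also: measured as one member of a kinome-wide profiling panel.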
Death-associated protein kinase 3, sequence (O43293 whole entry): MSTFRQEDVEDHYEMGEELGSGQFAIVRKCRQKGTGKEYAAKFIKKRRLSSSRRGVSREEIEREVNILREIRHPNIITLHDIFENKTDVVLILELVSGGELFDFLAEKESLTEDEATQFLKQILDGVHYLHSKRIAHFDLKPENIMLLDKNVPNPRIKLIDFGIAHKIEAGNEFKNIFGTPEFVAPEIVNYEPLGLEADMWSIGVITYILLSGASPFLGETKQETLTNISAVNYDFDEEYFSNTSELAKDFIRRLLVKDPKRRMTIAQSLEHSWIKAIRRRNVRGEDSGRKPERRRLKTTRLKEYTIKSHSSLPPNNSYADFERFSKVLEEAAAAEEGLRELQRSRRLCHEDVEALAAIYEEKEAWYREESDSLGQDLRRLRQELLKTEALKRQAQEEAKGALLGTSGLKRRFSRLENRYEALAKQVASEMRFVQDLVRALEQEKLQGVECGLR
Another assay concerns the target Aurora kinase A (Homo sapiens, UniProt O14965). The class given is functional.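 Also: value from the Navigating the Kinome kinase panel profiling, panel entry STK6.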
In assay [21] the target is Cell division cycle 7-related protein kinase (Homo sapiens, UniProt O00311). The class given is functional.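 Also: value obtained from a kinome-wide kinase panel.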
For assay [22], the target named is Casein kinase II subunit alpha (Homo sapiens, UniProt P68400). The class given is functional.
Casein kinase II subunit alpha, sequence (P68400 whole entry): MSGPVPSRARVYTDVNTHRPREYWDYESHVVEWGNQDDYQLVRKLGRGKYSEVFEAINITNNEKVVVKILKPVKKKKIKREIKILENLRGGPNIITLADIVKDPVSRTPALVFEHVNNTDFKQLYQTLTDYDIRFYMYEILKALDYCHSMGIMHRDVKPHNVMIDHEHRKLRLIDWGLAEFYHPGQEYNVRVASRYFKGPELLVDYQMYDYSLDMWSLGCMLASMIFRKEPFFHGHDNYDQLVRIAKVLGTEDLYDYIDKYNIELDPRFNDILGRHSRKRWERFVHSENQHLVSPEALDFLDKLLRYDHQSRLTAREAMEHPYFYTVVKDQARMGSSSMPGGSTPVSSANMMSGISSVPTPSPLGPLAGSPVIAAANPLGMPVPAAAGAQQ
Assay [23] concerns the target Fibroblast growth factor receptor 1 (Homo sapiens, UniProt P11362). In kind it is functional.
The target in assay [24] is MAP kinase-interacting serine/threonine-protein kinase 2 (Homo sapiens, UniProt Q9HBH9). In kind it is functional.
MAP kinase-interacting serine/threonine-protein kinase 2, sequence (Q9HBH9 whole entry): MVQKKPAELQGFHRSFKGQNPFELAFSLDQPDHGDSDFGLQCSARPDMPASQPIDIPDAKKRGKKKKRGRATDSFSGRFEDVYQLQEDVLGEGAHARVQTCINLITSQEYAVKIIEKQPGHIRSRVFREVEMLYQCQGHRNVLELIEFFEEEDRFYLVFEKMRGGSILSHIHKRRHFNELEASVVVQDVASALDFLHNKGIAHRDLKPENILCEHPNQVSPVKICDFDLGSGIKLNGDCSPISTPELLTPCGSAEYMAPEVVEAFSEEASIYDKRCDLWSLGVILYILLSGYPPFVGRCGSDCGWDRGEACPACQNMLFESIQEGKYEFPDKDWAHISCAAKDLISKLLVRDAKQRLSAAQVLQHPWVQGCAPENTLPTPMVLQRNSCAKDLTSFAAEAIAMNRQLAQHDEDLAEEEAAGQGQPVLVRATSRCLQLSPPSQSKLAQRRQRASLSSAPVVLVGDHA
Assay [25] concerns the target Protein kinase C iota type (Homo sapiens, UniProt P41743). In kind it is functional.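 Also: measured within a kinome-wide kinase panel, PRKCI as panel member.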
Assay [26] has as its target Rho-associated protein kinase 1 (Homo sapiens, UniProt Q13464). The class given is functional.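 Also: measured within a broad kinome-wide panel profiling many kinases.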
Assay [27] deals with Fibroblast growth factor receptor 3 (Homo sapiens, UniProt P22607). In kind it is functional.
The target of assay [28] is Cyclin-dependent kinase 9 (Homo sapiens, UniProt P50750). In kind it is functional.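 Also: value from the CDK9 entry of a kinome-spanning kinase panel.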
The target of assay [29] is Mitogen-activated protein kinase 12 (Homo sapiens, UniProt P53778). The class given is functional.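 Also: measured as one member of a kinome-wide kinase profiling panel.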
Mitogen-activated protein kinase 12, sequence (P53778 whole entry): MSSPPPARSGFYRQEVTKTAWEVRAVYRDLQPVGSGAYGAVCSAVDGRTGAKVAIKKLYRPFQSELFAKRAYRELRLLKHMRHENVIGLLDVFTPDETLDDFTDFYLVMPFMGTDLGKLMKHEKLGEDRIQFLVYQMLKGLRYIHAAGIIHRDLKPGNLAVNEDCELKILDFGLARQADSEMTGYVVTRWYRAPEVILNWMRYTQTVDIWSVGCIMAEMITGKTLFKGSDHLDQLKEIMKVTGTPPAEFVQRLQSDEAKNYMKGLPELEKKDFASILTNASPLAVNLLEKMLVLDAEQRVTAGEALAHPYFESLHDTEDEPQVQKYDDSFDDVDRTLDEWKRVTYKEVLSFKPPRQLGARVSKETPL
For assay [30], the target named is Serine/threonine-protein kinase BRSK1 (Homo sapiens, UniProt Q8TDC3). The class given is functional.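 Also: measured within a kinome-wide kinase panel, with the target listed as KIAA1811.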
Assay [31] has as its target Calcium/calmodulin-dependent protein kinase type II subunit alpha (Homo sapiens, UniProt Q9UQM7). Nature of the assay: Navigating the Kinome. Panel member name: CAMK2A. In kind it is functional.
Assay [32] deals with Mitogen-activated protein kinase 14 (Homo sapiens, UniProt Q16539). In kind it is functional.
Mitogen-activated protein kinase 14, sequence (Q16539 whole entry): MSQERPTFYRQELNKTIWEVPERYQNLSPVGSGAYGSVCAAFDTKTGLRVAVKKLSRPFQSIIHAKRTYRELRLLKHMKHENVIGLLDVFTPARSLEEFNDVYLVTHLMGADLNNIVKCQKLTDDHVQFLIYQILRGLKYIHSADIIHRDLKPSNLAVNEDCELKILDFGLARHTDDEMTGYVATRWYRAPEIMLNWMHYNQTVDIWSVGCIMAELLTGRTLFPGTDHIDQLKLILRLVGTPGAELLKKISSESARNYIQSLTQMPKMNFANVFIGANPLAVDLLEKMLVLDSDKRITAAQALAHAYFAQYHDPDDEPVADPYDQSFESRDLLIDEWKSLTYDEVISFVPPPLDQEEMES

SMILES strings stand for the structures. Active and inactive are the calls of the source.

Phosphorylase b kinase gamma catalytic chain, liver/testis isoform, sequence (P15735 whole entry, canonical isoform): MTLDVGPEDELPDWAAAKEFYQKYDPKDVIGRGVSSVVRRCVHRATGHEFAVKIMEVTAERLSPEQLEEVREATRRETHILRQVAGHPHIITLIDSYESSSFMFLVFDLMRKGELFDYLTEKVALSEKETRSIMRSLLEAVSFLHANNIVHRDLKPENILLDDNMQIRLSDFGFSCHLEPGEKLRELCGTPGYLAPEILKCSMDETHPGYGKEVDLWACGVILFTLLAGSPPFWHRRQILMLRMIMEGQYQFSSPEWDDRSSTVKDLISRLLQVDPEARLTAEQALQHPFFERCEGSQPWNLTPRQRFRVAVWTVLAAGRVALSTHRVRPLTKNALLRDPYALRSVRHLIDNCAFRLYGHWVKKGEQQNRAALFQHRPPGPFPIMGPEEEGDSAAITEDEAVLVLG
Dual specificity protein phosphatase 3, sequence (P51452 whole entry): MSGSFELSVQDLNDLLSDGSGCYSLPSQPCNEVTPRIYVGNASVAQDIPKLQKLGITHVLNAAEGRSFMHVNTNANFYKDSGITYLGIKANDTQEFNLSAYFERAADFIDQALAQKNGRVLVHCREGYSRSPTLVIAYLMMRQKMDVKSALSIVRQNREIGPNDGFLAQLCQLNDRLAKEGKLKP
Bifunctional protein GlmU, sequence (P9WMN3 whole entry): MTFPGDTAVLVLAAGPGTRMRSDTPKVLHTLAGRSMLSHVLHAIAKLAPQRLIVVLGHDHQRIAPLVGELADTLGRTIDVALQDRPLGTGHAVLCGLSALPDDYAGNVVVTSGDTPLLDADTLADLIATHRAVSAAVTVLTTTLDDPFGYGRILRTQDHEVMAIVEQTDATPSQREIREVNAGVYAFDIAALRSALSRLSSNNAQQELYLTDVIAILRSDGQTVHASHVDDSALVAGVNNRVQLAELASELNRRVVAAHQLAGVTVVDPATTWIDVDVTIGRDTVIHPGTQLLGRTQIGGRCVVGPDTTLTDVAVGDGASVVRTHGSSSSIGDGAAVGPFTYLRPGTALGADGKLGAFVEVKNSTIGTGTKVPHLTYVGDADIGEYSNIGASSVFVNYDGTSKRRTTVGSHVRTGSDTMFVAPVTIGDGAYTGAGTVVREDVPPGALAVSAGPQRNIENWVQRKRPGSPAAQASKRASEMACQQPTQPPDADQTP

Take `C=CCNC1=C(Cl)C(=O)c2ccccc2C1=O`: the values for the AC50 in assay [1] and in assay [2] were 5.58 µM (active) and 0.735 µM (active), respectively.
For the compound `CS(=O)(=O)c1ccc2c(c1)SC1=NC(=O)/C(=C/c3ccc(O)c(O)c3)C(=N)N12`, the IC50 in [3] was 10.4 µM (active); in assay [4] it was 159 µM (active). Besides, the EC50 in assay [5] is 61 µM (active). Also, in assay [6], the AC50 was 2.71 µM (active).
Regarding `CCOC(=O)C(C(=O)OCC)c1cc(Br)c2noc3c2c1C(=O)c1ccccc1-3`, the EC50 in assay [7] was 9.23 µM (active); in assay [8] it was 2.9 µM (active); in [9] it was 0.51 µM (active); in assay [10] it was 4.39 µM (active). Moreover, the CC50 in assay [11] was 19.2 µM (active).
As for `CN(C)c1ccc(-c2nnc(-c3cccs3)o2)cc1`, the IC50 in assay [12] is > 49.7 µM (inactive).
Consider `COc1ccc(C(=O)Nc2n[nH]c3ccc(-c4cn(Cc5ccccc5)nn4)cc23)cc1OC`, for which the Ki in [13] was 0.0631 µM (active); in assay [14], 1.26 µM (active); in assay [15], 0.316 µM (active); in [16] it was 1.26 µM (active); in assay [17], 0.0631 µM (active); in [18], 3.16 µM (active). The Ki was 2.51 µM (active) in [19]; 0.0316 µM (active) in assay [20]; 0.398 µM (active) at Aurora kinase A; 0.00126 µM (active) in assay [21]; 0.0158 µM (active) in assay [22]; 0.501 µM (active) in assay [23]. Further, the Ki in assay [24] was 3.16 µM (active); in [25] it was 3.98 µM (active); in [26], 1.26 µM (active); in [27] it was 0.158 µM (active); in assay [28] it was 0.501 µM (active); in assay [29], 0.631 µM (active). In addition, the values for the Ki in [30], in assay [31] and in [32] were 1.26 µM (active), 0.398 µM (active) and > 3.98 µM (inactive), respectively.

For orientation: AC50 means the midpoint of the concentration-response curve, whichever way the signal moves. As usually defined, the IC50 is the concentration at which inhibition is half-maximal. As a reminder, the EC50 is the concentration at which the effect is half-maximal. By CC50 is commonly meant the concentration that lowers cell viability or growth by half. The Ki is a measure of affinity in units of concentration, obtained from inhibition or displacement.

Values taken from ChEMBL document CHEMBL1201862, “PubChem BioAssay data set” (2004).
